pIC50: −log10 of the molar value. Where two headings read alike, the source gives them in different places.
Tests used:
Experiment in all cases: MTT cell viability assay
Assay type in all cases: cell-based
[1] = system: KMS12; settings: KMS12, Multiple Myeloma, RPMI 10% FBS
Excerpt: (§1) A total of 60 cell lines representative of different cancer types were obtained from the ATCC and grown and maintained in accordance with the provided guidelines. The cell lines represented the following distinct histologies: mantle cell lymphoma (5 lines: JVM13, Rec1, Mino, JVM2, Jeko); germinal center B-cell derived (“GCB”) DLBCL (19 lines: Farage, BJAB, Ly1, Ly2, Ly7, Ly8, Ly19, HBL2, HT, Karpas422, Pfeiffer, RCK8, RL, Sci-1, Ski, SUDHL4, SUDHL7, Toledo, WSU-NHL); primary mediastinal B-cell lymphoma (“PMBL”) (3 lines: K1106, MEDB1, U2940); Burkitt lymphoma (11 lines: Daudi, CA46, EB1, EB2, EB3, Jijoye, Raji, Ramos, Namwala, BL2, BL41); Hodgkin lymphoma (3 lines: RMPI6666, L1236, L428); activated B-cell derived (“ABC”) DLBCL (6 lines: Ly3, HBL1, TMD8, Ly10, Riva, U2932); multiple myeloma (6 lines: U266, SKMM1, RPMI8226, KMS12, IM9, H929); acute myelogenous leukemia (“AML”) (2 lines: U937, KG1); acute lymphoblastic leukemia (“ALL”) (2 lines: Reh, SR); and T-cell lymphoma (3 lines: Molt4, RPMI8402, Jurkat). The cell lines were tested within six months after resuscitation.
(§2) The 3-(4,5-dimethylthiazol-2-yl)-2,5-diphenyltetrazolium bromide (MTT) cell viability assay was used to determine cell viability in response to drug treatment. Five replicates per concentration tested were carried out in serial dilutions with a total of ten concentrations with a 50% reduction in drug concentration per dilution for each plate. A total of 15 μl of MTT reagent was added to each drug-treated well and incubated for three hours in 37° C. Detergent was added to each drug-treated well and incubated overnight at room temperature without exposure to light. Absorbance was measured at 570 nm using a plate reader from Tecan Group. The IC50 concentration was determined using the publicly available ED50 plus v1.0 software program.

[2] = system: RCK8; settings: Homo sapiens; RCK8, GCB DLBCL, RPMI 15% FBS
Excerpt: as §1, §2

[3] = system: Pfeiffer; settings: Homo sapiens, GCB DLBCL, RPMI 10% FBS
Excerpt: as §1, §2

[4] = system: U2932; settings: Homo sapiens; U2932, ABC DLBCL, RPMI 10% FBS
Excerpt: as §1, §2

[5] = system: SUDHL4; settings: Homo sapiens, SU-DHL-4; SUDHL4, GCB DLBCL, RPMI 15% FBS
Excerpt: as §1, §2

[6] = system: IM9; settings: Homo sapiens, IM-9; IM9, Multiple Myeloma, RPMI 10% FBS
Excerpt: as §1, §2

[7] = system: LY7; settings: LY7, GCB DLBCL, OCI
Excerpt: as §1, §2

[8] = system: Jijoye; settings: Burkitt Lymphoma, RPMI 10% FBS
Excerpt: as §1, §2

[9] = system: L1236; settings: L-1236; L1236, Hodgkin Lymphoma, RPMI 10% FBS
Excerpt: as §1, §2

[10] = system: HBL2; settings: HBL2, GCB DLBCL, RPMI 10% FBS
Excerpt: as §1, §2

[11] = system: MEDB1; settings: MEDB1, PMBL, RPMI 10% FBS
Excerpt: as §1, §2

[12] = system: BJAB; settings: Homo sapiens
Excerpt: as §1, §2

[13] = system: Daudi; settings: Homo sapiens, Burkitt Lymphoma, RPMI 10% FBS
Excerpt: as §1, §2

[14] = system: KG1; settings: Homo sapiens, KG-1; KG1, AML, IMDM 20% FBS
Excerpt: as §1, §2

[15] = system: EB2; settings: Homo sapiens; EB2, Burkitt Lymphoma, RPMI 10% FBS
Excerpt: as §1, §2

[16] = system: SR; settings: Homo sapiens, ALL, RPMI 10% FBS
Excerpt: as §1, §2

[17] = system: Rec1; settings: Homo sapiens; Rec1, MantleCellLymphoma, RPMI 10% FBS
Excerpt: as §1, §2

[18] = system: EB1; settings: EB1, Burkitt Lymphoma, RPMI 10% FBS
Excerpt: as §1, §2

[19] = system: Jeko; settings: MantleCellLymphoma, RPMI 10% FBS
Excerpt: as §1, §2

[20] = system: Sci-1; settings: Sci-1, GCB DLBCL, RPMI 10% FBS
Excerpt: as §1, §2

[21] = system: Ramos; settings: Homo sapiens, Burkitt Lymphoma, RPMI 10% FBS
Excerpt: as §1, §2

[22] = system: BL2; settings: BL2, Burkitt Lymphoma, RPMI 10% FBS
Excerpt: as §1, §2

[23] = system: TMD8; settings: Homo sapiens; TMD8, ABC DLBCL, MEM-α 10% FBS
Excerpt: as §1, §2

[24] = system: U266; settings: Homo sapiens, U-266; U266, Multiple Myeloma, RPMI 15% FBS
Excerpt: as §1, §2

[25] = system: Mino; settings: Homo sapiens, MantleCellLymphoma, RPMI 10% FBS
Excerpt: as §1, §2

[26] = system: Raji; settings: Homo sapiens, Burkitt Lymphoma, RPMI 10% FBS
Excerpt: as §1, §2

[27] = system: U937; settings: Homo sapiens, U-937; U937, AML, RPMI 10% FBS
Excerpt: as §1, §2

[28] = system: RL; settings: Homo sapiens, GCB DLBCL, RPMI 10% FBS
Excerpt: as §1, §2

[29] = system: LY19; settings: LY19, GCB DLBCL, OCI
Excerpt: as §1, §2

[30] = system: Karpas422; settings: Homo sapiens, KARPAS-422; Karpas422, GCB DLBCL, RPMI 10% FBS
Excerpt: as §1, §2

[31] = BJAB, GCB DLBCL, RPMI 10% FBS, read-out: IC50

Row | SMILES | pIC50 [2] | pIC50 [3] | pIC50 [5] | pIC50 [6] | pIC50 [7] | pIC50 [8] | pIC50 [9] | pIC50 [11] | pIC50 [12, 31] | pIC50 [13] | pIC50 [14] | pIC50 [15] | pIC50 [17] | pIC50 [18] | pIC50 [19] | pIC50 [20] | pIC50 [23] | pIC50 [25] | pIC50 [26] | pIC50 [27] | other results
1 | Cn1c(=O)n(-c2ccc(C(C)(C)C#N)cc2)c2c3cc(-c4cnc5ccccc5c4)ccc3ncc21 [BEZ235] | 7.70 | 7.77 | 7.22 | 5.35 | 6.59 | 6.85 | 7.22 | 5.74 | 7.57 | 7.33 | 7.10 | 7.15 | 7.08 | 7.65 | 7.29 | 7.46 | 6.93 | 7.22 | 6.52 | 7.82 | pIC50 [1]: 7.64; pIC50 [4]: 7.02; pIC50 [10]: 5.81; pIC50 ([12]; BJAB cells, read-out: IC50 concentration): 7.57; pIC50 ([12]; BJAB cells, read-out: observed IC50): 7.57; pIC50 [16]: 7.19; pIC50 [21]: 7.29; pIC50 [22]: 7.30; pIC50 [24]: 6.78; pIC50 [28]: 7.59; pIC50 [29]: 6.65; pIC50 [30]: 7.66
2 | COc1ccc(-c2ccc3ncc4c(c3c2)n(-c2ccc(N3CCNCC3)c(C(F)(F)F)c2)c(=O)n4C)cn1 [BGT226] | 7.66 | 7.68 | 7.29 | 6.70 | 7.69 | 7.88 | 7.91 | 7.30 | 8.07 | 7.06 | 7.60 | 6.70 | 7.44 | 7.15 | 7.78 | 7.61 | 7.00 | 7.98 | 7.10 | 7.95 | pIC50 [28]: 7.19; pIC50 [29]: 7.48; pIC50 [30]: 7.07
3 | Nc1cc(C(F)(F)F)c(-c2cc(N3CCOCC3)nc(N3CCOCC3)n2)cn1 [BKM120] | 5.49 | 5.98 | 5.95 | 6.24 | 5.59 | 5.56 | 5.95 | 5.11 | 5.83 | 5.89 | 6.14 | 5.97 | 6.11 | 5.97 | 6.12 | 6.01 | 6.12 | 6.34 | 5.64 | 6.05 | pIC50 [1]: 6.02; pIC50 [4]: 5.27; pIC50 [10]: 5.85; pIC50 [16]: 6.09; pIC50 [21]: 5.98; pIC50 [22]: 6.14; pIC50 [24]: 5.25; pIC50 [28]: 5.59; pIC50 [29]: 5.72; pIC50 [30]: 5.68

From patent publication US9861625B2, “Methods and compositions for treating cancer through inhibition of PI3K” (Duke University, priority 2014, dated 2018)
